Among the data in patent US11304957B2, “Substituted quinazolines for inhibiting kinase activity” (NeuPharma, Inc., priority 2013, dated 2022) are inhibition values, retold here.

SMILES strings stand for the structures.

What all share (assay type): biochemical
For one experiment, the target named is FGFR1 (Homo sapiens (Human), UniProt P11362). Briefly: Z'-LYTE kinase inhibition assay, FGFR1. The note with it: read-out: % inhibition FGFR1; heading: % inhibition FGFR1; compound at 0.041 μM. How it is done:
(§1) Inhibitory activities of compounds against BTK, EGFR and EGFR mutants (EGFR L858R, EGFR T790M, EGFR L858R/T790M), FGFR1, FGFR2, JAK2, JAK3 and KDR were measured by Invitrogen using Z′-LYTE® Method as briefly described in the following.
(§2) Test Compounds are screened in 1% DMSO (final) in the well. For 10 point titrations, 3-fold serial dilutions are conducted from the starting concentration. All ATP Solutions are diluted to a 4× working concentration in Kinase Buffer (50 mM HEPES pH 7.5, 0.01% BRIJ-35, 10 mM MgCl2, 1 mM EGTA). Peptide/Kinase Mixtures are diluted to a 2× working concentration in the appropriate Kinase Buffers as described below.
(v) Peptide/Kinase Mixtures for Measurement of FGFR1:
The 2×FGFR1/Tyr 04 mixture is prepared in 50 mM HEPES pH 7.5, 0.01% BRIJ-35, 10 mM MgCl2, 4 mM MnCl2, 1 mM EGTA, 2 mM DTT. The final 10 μL Kinase Reaction consists of 0.41-3.5 ng FGFR1 and 2 μM Tyr 04 in 50 mM HEPES pH 7.5, 0.01% BRIJ-35, 10 mM MgCl2, 2 mM MnCl2, 1 mM EGTA, 1 mM DTT. After the 1 hour Kinase Reaction incubation, 5 μL of a 1:64 dilution of Development Reagent B is added.
(§3) Reaction starts by 30-second shaking of mixture consisting of 2.5 μL 4× test compound, 5 μL 2× kinase reaction mixture and 2.5 μL 4×ATP Solution on Bar-coded Corning, low volume NBS, black 384-well plate (Corning Cat. #3676). Then the mixture is incubated for 60-minute at room temperature for the kinase reaction, followed by addition of 5 μL of a 1:1024 dilution of development reagent A and 30-second plate shake. The mixture is then incubated for another 60-minute at room temperature for development reaction. Finally fluorescence is read by plate reader.
(§4) To determine IC50 of a compound against EGFR, EGFR mutant and other kinases, a series of concentrations of the compound were tested for the inhibition. […] The scale utilized in Table 4 is as follows: +++ less than 100 nM, ++ 100-500 nM and + greater than 500 nM.

For a further experiment, the target named is JAK2 (Homo sapiens (Human), UniProt O60674). As to the kind of experiment: Z'-LYTE kinase inhibition assay, JAK2. To be noted: read-out: % inhibition JAK2; heading: % inhibition JAK2; compound at 0.041 μM. How it is done: as §1, §2
(v) Peptide/Kinase Mixtures for Measurement of JAK2:
The 2×JAK2/Tyr 06 mixture is prepared in 50 mM HEPES pH 7.5, 0.01% BRIJ-35, 10 mM MgCl2, 1 mM EGTA. The final 10 μL Kinase Reaction consists of 0.06-0.81 ng JAK2 and 2 μM Tyr 06 in 50 mM HEPES pH 7.5, 0.01% BRIJ-35, 10 mM MgCl2, 1 mM EGTA. After the 1 hour Kinase Reaction incubation, 5 μL of a 1:64 dilution of Development Reagent A is added.
as §3

Another experiment has as its target BTK (Homo sapiens (Human), UniProt Q06187). Briefly: Z'-LYTE kinase inhibition assay, BTK. To be noted: read-out: % inhibition BTK; heading: % inhibition BTK; compound at 0.041 μM. How it is done:
as §1, §2
(v) Peptide/Kinase Mixtures for Measurement of BTK:
The 2×BTK/Tyr 01 mixture is prepared in 50 mM HEPES pH 7.5, 0.01% BRIJ-35, 10 mM MgCl2, 1 mM EGTA.
The mixture is then incubated for another 60-minute at room temperature for development reaction. Finally fluorescence is read by plate reader.
as §4

The target in a further experiment is EGFR (ErbB1) T790M L858R (Homo sapiens (Human), UniProt P00533, L858R/T790M). As to the kind of experiment: Z'-LYTE kinase inhibition assay, EGFR L858R/T790M. To be noted: for inhibition at 0.0137 µM: read-out: % inhibition EGFR L858R/T790M (Compound at 0.0137 μM). The protocol:
Inhibitory activities of compounds against BTK, EGFR and EGFR mutants (EGFR L858R, EGFR T790M, EGFR L858R/T790M), FGFR1, FGFR2, JAK2, JAK3 and KDR were measured by Invitrogen using Z'-LYTE® Method as briefly described in the following. Test Compounds are screened in 1% DMSO (final) in the well. For 10 point titrations, 3-fold serial dilutions are conducted from the starting concentration. All ATP Solutions are diluted to a 4× working concentration in Kinase Buffer (50 mM HEPES pH 7.5, 0.01% BRIJ-35, 10 mM MgCl2, 1 mM EGTA). Peptide/Kinase Mixtures are diluted to a 2× working concentration in the appropriate Kinase Buffers as described below. (iv) Peptide/Kinase Mixtures for Measurement of EGFR (ErbB1) T790M L858R: The 2×EGFR (ErbB1) […] mixture is prepared in 50 mM HEPES pH 6.5, 0.01% BRIJ-35, 10 mM MgCl2, 1 mM EGTA, 0.02% NaN3. […] After the 1 hour Kinase Reaction incubation, 5 μL of a 1:64 dilution of Development Reagent B is added. Reaction starts by 30-second shaking of mixture consisting of 2.5 μL 4× test compound, 5 μL 2× kinase reaction mixture and 2.5 μL 4×ATP Solution on Bar-coded Corning, low volume NBS, black 384-well plate (Corning Cat. #3676). Then the mixture is incubated for 60-minute at room temperature for the kinase reaction, followed by addition of 5 μL of a 1:1024 dilution of development reagent A and 30-second plate shake. The mixture is then incubated for another 60-minute at room temperature for development reaction. Finally fluorescence is read by plate reader. To determine IC50 of a compound against EGFR, EGFR mutant and other kinases, a series of concentrations of the compound were tested for the inhibition.

Chain of EGFR (ErbB1) T790M L858R (P00533 25-1210 T790M/L858R): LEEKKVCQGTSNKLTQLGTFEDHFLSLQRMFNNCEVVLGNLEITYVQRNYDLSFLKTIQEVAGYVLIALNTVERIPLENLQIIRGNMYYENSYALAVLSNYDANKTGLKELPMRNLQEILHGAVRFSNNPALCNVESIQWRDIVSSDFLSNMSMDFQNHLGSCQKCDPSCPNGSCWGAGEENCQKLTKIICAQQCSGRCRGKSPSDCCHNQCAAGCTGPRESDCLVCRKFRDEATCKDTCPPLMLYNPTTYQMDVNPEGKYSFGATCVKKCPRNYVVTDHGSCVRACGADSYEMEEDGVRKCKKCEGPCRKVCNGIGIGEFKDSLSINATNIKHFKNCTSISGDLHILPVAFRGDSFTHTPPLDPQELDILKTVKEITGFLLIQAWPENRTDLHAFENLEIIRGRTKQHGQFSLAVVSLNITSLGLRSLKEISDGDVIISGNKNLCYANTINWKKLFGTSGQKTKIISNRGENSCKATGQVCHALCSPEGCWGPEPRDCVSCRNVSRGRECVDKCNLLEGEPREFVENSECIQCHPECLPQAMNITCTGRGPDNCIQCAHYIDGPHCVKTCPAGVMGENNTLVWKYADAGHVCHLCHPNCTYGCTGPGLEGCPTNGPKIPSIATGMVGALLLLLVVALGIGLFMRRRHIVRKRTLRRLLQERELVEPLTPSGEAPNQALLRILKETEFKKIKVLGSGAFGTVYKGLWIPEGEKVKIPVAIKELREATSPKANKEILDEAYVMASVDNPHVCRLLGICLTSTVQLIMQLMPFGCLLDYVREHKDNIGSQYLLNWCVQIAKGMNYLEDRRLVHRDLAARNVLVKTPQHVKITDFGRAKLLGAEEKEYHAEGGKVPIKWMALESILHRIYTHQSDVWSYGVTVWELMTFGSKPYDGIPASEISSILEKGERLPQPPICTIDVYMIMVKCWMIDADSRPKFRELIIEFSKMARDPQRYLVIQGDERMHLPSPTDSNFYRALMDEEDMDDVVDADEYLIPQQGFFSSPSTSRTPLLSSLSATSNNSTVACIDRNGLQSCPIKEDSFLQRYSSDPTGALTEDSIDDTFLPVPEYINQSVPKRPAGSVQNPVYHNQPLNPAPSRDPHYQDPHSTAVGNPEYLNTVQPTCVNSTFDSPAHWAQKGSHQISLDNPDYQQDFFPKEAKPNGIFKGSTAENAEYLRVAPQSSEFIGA
Chain of JAK2 (O60674 whole entry): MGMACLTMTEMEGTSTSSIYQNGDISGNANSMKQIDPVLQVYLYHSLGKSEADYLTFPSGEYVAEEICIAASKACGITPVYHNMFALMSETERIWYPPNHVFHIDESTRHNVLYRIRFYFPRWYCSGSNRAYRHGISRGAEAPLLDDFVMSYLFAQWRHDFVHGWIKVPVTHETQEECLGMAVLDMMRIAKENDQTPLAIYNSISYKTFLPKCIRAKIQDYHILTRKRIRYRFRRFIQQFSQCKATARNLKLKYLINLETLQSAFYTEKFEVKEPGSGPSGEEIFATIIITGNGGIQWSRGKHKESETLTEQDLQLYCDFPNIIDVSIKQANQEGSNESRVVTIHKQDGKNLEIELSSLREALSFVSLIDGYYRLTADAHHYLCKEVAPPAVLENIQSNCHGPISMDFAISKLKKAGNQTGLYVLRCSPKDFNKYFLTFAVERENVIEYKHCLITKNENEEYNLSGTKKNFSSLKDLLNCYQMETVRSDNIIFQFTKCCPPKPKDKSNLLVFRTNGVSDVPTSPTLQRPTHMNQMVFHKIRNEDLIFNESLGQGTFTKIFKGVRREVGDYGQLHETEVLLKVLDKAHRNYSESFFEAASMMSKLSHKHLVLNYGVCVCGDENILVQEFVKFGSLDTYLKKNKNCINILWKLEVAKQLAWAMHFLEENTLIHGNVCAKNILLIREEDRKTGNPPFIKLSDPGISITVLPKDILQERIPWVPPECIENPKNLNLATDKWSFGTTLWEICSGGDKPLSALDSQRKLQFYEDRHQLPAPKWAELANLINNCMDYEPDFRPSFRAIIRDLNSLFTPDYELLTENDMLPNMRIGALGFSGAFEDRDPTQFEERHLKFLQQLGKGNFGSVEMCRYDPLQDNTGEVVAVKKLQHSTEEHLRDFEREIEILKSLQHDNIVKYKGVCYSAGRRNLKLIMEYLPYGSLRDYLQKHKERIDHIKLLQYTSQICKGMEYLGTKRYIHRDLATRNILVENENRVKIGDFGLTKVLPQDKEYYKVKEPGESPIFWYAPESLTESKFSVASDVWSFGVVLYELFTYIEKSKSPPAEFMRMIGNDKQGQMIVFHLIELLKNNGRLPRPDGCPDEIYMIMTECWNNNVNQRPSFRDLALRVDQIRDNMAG
Chain of FGFR1 (P11362 22-822): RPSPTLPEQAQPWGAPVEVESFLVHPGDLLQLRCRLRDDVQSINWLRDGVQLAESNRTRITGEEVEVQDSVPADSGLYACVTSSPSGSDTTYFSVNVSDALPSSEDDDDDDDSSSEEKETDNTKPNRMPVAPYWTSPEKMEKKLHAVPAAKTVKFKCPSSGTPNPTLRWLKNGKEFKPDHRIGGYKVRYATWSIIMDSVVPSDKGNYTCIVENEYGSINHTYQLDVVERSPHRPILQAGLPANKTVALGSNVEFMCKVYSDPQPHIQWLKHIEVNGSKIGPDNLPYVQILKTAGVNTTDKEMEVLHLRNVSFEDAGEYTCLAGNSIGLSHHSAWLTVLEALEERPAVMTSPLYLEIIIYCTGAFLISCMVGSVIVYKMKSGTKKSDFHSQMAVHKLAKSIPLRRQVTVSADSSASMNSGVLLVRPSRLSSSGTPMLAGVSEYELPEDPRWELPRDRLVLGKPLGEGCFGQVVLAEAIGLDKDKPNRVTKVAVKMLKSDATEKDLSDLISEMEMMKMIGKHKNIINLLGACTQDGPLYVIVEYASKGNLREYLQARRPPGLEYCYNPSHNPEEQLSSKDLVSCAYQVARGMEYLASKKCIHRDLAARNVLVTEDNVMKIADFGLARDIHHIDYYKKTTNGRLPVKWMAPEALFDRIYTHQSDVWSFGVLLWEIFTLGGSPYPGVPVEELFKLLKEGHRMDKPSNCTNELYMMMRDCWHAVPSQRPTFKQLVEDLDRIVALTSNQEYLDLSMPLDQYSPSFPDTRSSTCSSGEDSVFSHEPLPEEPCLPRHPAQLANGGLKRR
Chain of BTK (Q06187 whole entry): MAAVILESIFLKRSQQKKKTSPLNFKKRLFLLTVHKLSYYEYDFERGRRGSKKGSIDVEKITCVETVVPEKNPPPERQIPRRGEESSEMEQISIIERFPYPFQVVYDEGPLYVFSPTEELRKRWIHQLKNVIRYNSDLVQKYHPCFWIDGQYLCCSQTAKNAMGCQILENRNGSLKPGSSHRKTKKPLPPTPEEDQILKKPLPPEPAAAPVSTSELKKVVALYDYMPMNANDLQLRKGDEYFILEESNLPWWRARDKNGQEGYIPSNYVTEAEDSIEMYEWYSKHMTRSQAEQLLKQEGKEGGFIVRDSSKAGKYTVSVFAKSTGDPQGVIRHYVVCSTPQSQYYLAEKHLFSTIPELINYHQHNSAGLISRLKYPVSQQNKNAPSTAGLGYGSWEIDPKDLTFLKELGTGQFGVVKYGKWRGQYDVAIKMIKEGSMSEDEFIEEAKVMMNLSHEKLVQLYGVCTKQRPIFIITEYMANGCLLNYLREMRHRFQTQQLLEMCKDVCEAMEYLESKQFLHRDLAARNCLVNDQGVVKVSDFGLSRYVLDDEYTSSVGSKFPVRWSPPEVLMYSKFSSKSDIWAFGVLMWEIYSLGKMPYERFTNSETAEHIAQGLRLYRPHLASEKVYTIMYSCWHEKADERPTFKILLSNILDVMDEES

On to `C=CC(=O)Nc1cccc(-c2cccc3cnc(Nc4ccc(N5CCN(C(C)=O)CC5)nc4)nc23)c1` [Example C036, N-(3-(2-((6-(4-acetylpiperazin-1-yl)pyridin-3-yl)amino)quinazolin-8-yl)phenyl)acrylamide], for which the inhibition at 0.041 µM at FGFR1 was under 50%.
Consider `c1ccc(-c2cccc3cnc(Nc4ccc(N5CCOCC5)cc4)nc23)cc1` [Example C004, N-(4-morpholinophenyl)-8-phenylquinazolin-2-amine], for which the results for the inhibition at 0.041 µM on JAK2 and at BTK were over 50% and under 50%, respectively.
Consider `C=CC(=O)Nc1cccc(-c2cccc3cnc(Nc4ccc(N5CCN(C(C)=O)CC5)cc4)nc23)c1Cl` [Example C051, N-(3-(2-((4-(4-acetylpiperazin-1-yl)phenyl)amino)quinazolin-8-yl)-2-chlorophenyl)acrylamide], for which, on FGFR1, the inhibition at 0.041 µM was under 50%.
On to `CC(=O)Nc1cccc(-c2cccc3cnc(Nc4ccc(N5CCN(C)CC5)cc4)nc23)c1` [Example C022, N-(3-(2-((4-(4-methylpiperazin-1-yl)phenyl)amino)quinazolin-8-yl)phenyl)acetamide], for which the inhibition at 0.041 µM on JAK2 and at BTK was over 50% throughout.
With `C=CC(=O)Nc1cccc(-c2cccc3cnc(Nc4ccc(N5CCN(CCO)CC5)cc4)nc23)c1` [Example C059, N-(3-(2-((4-(4-(2-hydroxyethyl)piperazin-1-yl)phenyl)amino)quinazolin-8-yl)phenyl)acrylamide], on FGFR1, the inhibition at 0.041 µM was over 50%. In addition, the inhibition at 0.0137 µM on EGFR (ErbB1) T790M L858R was over 50%.
In the case of `Clc1cccc(-c2cccc3cnc(Nc4ccc(N5CCOCC5)cc4)nc23)c1` [Example C008, 8-(3-chlorophenyl)-N-(4-morpholinophenyl)quinazolin-2-amine], the inhibition at 0.041 µM at BTK and on FGFR1 was under 50% in each case.
On to `Fc1cccc(-c2cccc3cnc(Nc4ccc(N5CCNCC5)cc4)nc23)c1` [Example C027, 8-(3-fluorophenyl)-N-(4-(piperazin-1-yl)phenyl)quinazolin-2-amine], for which the inhibition at 0.041 µM on FGFR1 was over 50%.
`C=CC(=O)Nc1cccc(-c2cccc3cnc(Nc4ccc(N5CCOCC5)cc4)nc23)c1` [Example C001, N-(3-(2-((4-morpholinophenyl)amino)quinazolin-8-yl)phenyl)acrylamide]: the inhibition at 0.041 µM on JAK2, at BTK and on FGFR1 was over 50% in each case.
In the case of `C=CC(=O)Nc1cccc(-c2cccc3cnc(Nc4ccc(N5CCN(C)CC5)cc4F)nc23)c1` [Example C044, N-(3-(2-((2-fluoro-4-(4-methylpiperazin-1-yl)phenyl)amino)quinazolin-8-yl)phenyl)acrylamide], the inhibition at 0.041 µM at FGFR1 was under 50%.
For the molecule `C=CC(=O)Nc1cccc(-c2cccc3cnc(Nc4ccc(N5CCN(CCF)CC5)cc4)nc23)c1` [Example C053, N-(3-(2-((4-(4-(2-fluoroethyl)piperazin-1-yl)phenyl)amino)quinazolin-8-yl)phenyl)acrylamide], the inhibition at 0.041 µM at JAK2, at BTK and at FGFR1 was over 50% each time.
Regarding `C=CC(=O)Nc1cccc(-c2c(C)ccc3cnc(Nc4ccc(N5CCOCC5)cc4)nc23)c1` [Example C033, N-(3-(7-methyl-2-((4-morpholinophenyl)amino)quinazolin-8-yl)phenyl)acrylamide], the inhibition at 0.041 µM on JAK2 was under 50%; on BTK it was over 50%.
On to `C=CC(=O)Nc1cccc(-c2cccc3cnc(Nc4ccc(N5CCN(C)CC5)cc4)nc23)c1` [Example C021, N-(3-(2-((4-(4-methylpiperazin-1-yl)phenyl)amino)quinazolin-8-yl)phenyl)acrylamide], for which the inhibition at 0.041 µM on JAK2 is over 50%. Moreover, the inhibition at 0.0137 µM on EGFR (ErbB1) T790M L858R was over 50%.
For the molecule `C=CC(=O)Nc1cccc(-c2nccc3cnc(Nc4ccc(N5CCOCC5)cc4)nc23)c1` [Example C012, N-(3-(2-((4-morpholinophenyl)amino)pyrido[3,4-d]pyrimidin-8-yl)phenyl)acrylamide], the inhibition at 0.041 µM at JAK2 was under 50%; at BTK, over 50%.
Consider `C=CC(=O)Nc1cccc(-c2cccc3cnc(Nc4ccc(N5CCN(C(C)=O)CC5)cc4)nc23)c1` [Example C032, N-(3-(2-((4-(4-acetylpiperazin-1-yl)phenyl)amino)quinazolin-8-yl)phenyl)acrylamide], for which the inhibition at 0.041 µM at JAK2 and on BTK was over 50% throughout. Also, the inhibition at 0.0137 µM at EGFR (ErbB1) T790M L858R was under 50%. Further, on EGFR (ErbB1) T790M L858R (read-out: % inhibition EGFR L858R/T790M (Compound at 1 μM)), the inhibition at 1 µM is over 50%.
For the molecule `C=CC(=O)Nc1cccc(-c2cccc3cnc(Nc4ccc(N5CCN(C)CC5)nc4OC)nc23)c1` [Example C055, N-(3-(2-((2-methoxy-6-(4-methylpiperazin-1-yl)pyridin-3-yl)amino)quinazolin-8-yl)phenyl)acrylamide], the inhibition at 0.041 µM at JAK2 and at BTK was under 50% each time.
For `Fc1ccc(OCCN2CCOCC2)cc1-c1cccc2cnc(Nc3ccc(N4CCOCC4)cc3)nc12` [Example C023, 8-(2-fluoro-5-(2-morpholinoethoxy)phenyl)-N-(4-morpholinophenyl)quinazolin-2-amine], the inhibition at 0.041 µM at JAK2, on BTK and on FGFR1 was under 50% in each case.
In the case of `C=CC(=O)Nc1cncc(-c2cccc3cnc(Nc4ccc(N5CCN(C)CC5)cc4)nc23)c1` [Example C040, N-(5-(2-((4-(4-methylpiperazin-1-yl)phenyl)amino)quinazolin-8-yl)pyridin-3-yl)acrylamide], the inhibition at 0.041 µM is under 50% at JAK2 and over 50% on BTK. Moreover, the inhibition at 0.0137 µM on EGFR (ErbB1) T790M L858R is over 50%.
Consider `C=CC(=O)Nc1cccc(-c2cccc3cnc(Nc4ccc(N5CCN(C)CC5)c(OC)c4)nc23)c1` [Example C075, N-(3-(2-((3-methoxy-4-(4-methylpiperazin-1-yl)phenyl)amino)quinazolin-8-yl)phenyl)acrylamide], for which, at FGFR1, the inhibition at 0.041 µM was over 50%.
